Read-outs that look alike come from different tables or passages of the source.

Assay [1] concerns Pseudomonas aeruginosa (strain PAO1). The experiment in a line: Viable cell count of Pseudomonas aeruginosa strain PAO1 cultured with peptide and polymyxin B. Format: cell-based. The settings on record: 0.4 μg/mL polymyxin B. The procedure: At this time, the culture was performed under conditions in which various concentrations of a peptide, LTLR (a peptide consisting of 4 amino acid residues, having the sequence leucine-threonine-leucine-arginine) were added. Under each condition, the number of viable cells of Pseudomonas aeruginosa was measured, and it was measured how the addition of the peptide changes the number of the viable cells compared to the number of the viable cells for no addition of the peptide. The results are shown in the graph of FIG. 4(A).

The test system of assay [2] is Clinical isolates (strains 24, 42, 83, 88 and 92 of P. aeruginosa), strain nalB, strain nfxC. The settings on record: 3 mM LTLR, polymyxin B 0.2 μg/mL. The procedure:
In Examples and the like described below, the number of viable cells of Gram-negative bacteria (Pseudomonas aeruginosa or Escherichia coli) is measured as follows. A portion of bacteria cultured at 37° C. overnight is added to a fresh MH medium and continues to be cultured at the same temperature. When the turbidity (absorbance at 600 nm) of the bacteria reaches 0.7-0.8, the bacterial solution is added an MH medium to prepare a bacterial solution diluted 1:100-200, which is used for experimental purposes. A solution in which 60-80 μL of the bacterial solution was added to a solution of a peptide and the like to a final amount of 100 μL is cultured for a certain time (3 hours) while stirring at 37° C. After culture, the bacterial solution was diluted with a PBS solution, and the diluted solution is seeded on an MH agar plate and cultured at 37° C. overnight. The following day, the number of colonies grown on the plate is counted to determine the number of viable bacterial cells.
Clinical isolates (strains 24, 42, 83, 88 and 92 of P. aeruginosa), strain nalB (a strain having acquired high multidrug resistance by highly expressing MexAB-OprM as a drug efflux pump), and strain nfxC (a strain having acquired high multidrug resistance by highly expressing MexEF-OprN as a drug efflux pump) were used in place of the strain PA01 (standard strain) of Pseudomonas aeruginosa used in Example 1 to measure the action of LTLR thereon. In this experiment, the final concentration of polymyxin B was set at 0.2 μg/mL with 3 mM LTLR added to examine changes in the survival rate thereof.

The subject of assay [3] is Escherichia coli. Put plainly: Viable cell count of Escherichia coli with peptide and polymyxin B. Format: cell-based. The settings on record: ATCC25922; 3 mM LTLR; polymyxin B 0.2 μg/mL. The procedure:
Escherichia coli (ATCC25922) was used in place of Pseudomonas aeruginosa for the same measurement as in Example 2.
LTLR whose carboxy terminal was amidated was synthesized to examine the action thereof. Under the same conditions as those in Example 1, various concentrations of the amidated LTLR were added to examine changes in the survival rate of Pseudomonas aeruginosa.

In the case of “leucine-threonine-leucine-arginine [LTLR]”, the “survival rate of Pseudomonas aeruginosa” value in assay [1] (2.5 mM peptide, 3 hours culture, vs no addition of peptide) is approximately 0%. In assay [1] (various concentrations of peptide), the “change in survival rate of Pseudomonas aeruginosa” value is “decreased in a manner dependent on the concentration”. Further, the “Survival Rate (%)” value is listed as 0% in assay [2] (P. aeruginosa 24); 43% in assay [2] (P. aeruginosa 42); 0% in assay [2] (P. aeruginosa 83); 25% in assay [2] (P. aeruginosa 88); 9% in assay [2] (P. aeruginosa 92); 0% in assay [2] (strain nalB (highly expressing MexAB-OprM)). In addition, the “Survival Rate (%)” value in assay [2] (strain nfxC (highly expressing MexEF-OprN)) was 1%. In addition, in assay [3], the “survival rate of Escherichia coli” value is on record as “about 1%”.

For the origin of these results see patent publication US20120135917A1, “Anti-Gram Negative Bacteria Agent” (priority 2009, published 2012).
